{"source": "patent US20160265061A1", "about": "“COMPOSITION FOR DIAGNOSING OVARIAN CANCER METASTASIS BY USING CPG METHYLATION IN GENE, AND USE THEREOF” (EWHA UNIVERSITY - INDUSTRY COLLABORATION FOUNDATION, priority 2013, published 2016)", "system": "SK-OV-3 cell line", "assay": "5-aza-2′-deoxycytidine treatment of SK-OV-3 cell line, gene expression changes by qRT-PCR", "type": "cell-based, Human", "key": {"[1]": {"conditions": "primary cell line SK-OV-3 treated with 5, 10 and 20 μM for 3 days, qRT-PCR normalized to GAPDH"}}}
{"smiles": "Nc1ncn([C@H]2C[C@H](O)[C@@H](CO)O2)c(=O)n1", "note": "[5-aza-2′-deoxycytidine]", "values": [{"measurement": "changes in expressions of the three genes (ADAM12, NTN4 and PTGS2)", "setting": "cell line SK-OV-3, treatment for 3 days, FIGS. 12 to 14", "result": "increased"}, {"measurement": "increase in ADAM12 gene expression", "setting": "cell line SK-OV-3 treated with 5, 10 and 20 μM for 3 days, qRT-PCR normalized to GAPDH", "result": "about 2 fold"}, {"measurement": "increase in NTN4 gene expression", "setting": "[1]", "result": "about 2 fold"}, {"measurement": "increase in PTGS2 gene expression", "setting": "[1]", "result": "about 2 fold"}]}
